Measurements reported in patent US20150111933A1, “Deuterated Thiazolidinone Analogues as Agonists for Follicle Stimulating Hormone Receptor” (Merck Patent GmbH, priority 2012, published 2015).

Columns and labels:
FSHR = molecular target: T1, FSHR (Homo sapiens, UniProt P23945); assay: EC50 of cyclic AMP production in CHO FSHR cells + EC20 FSH (HTRF); format: cell-based; settings: Cho-FSHR-LUC-1-1-43 cells; for Emax: 1 h, read-out: EC50 of cAMP production (% effect); for Emax / EC50 of cAMP production (% effect): + EC20 FSH, % effect in brackets; for EC50: + EC20 FSH (0.265 pM), 200 μM IBMX, 1 h at 37° C., read-out: EC50 of cAMP production
T1 construct: expressed in transfected cells; host or cells: CHO (Cho-FSHR-LUC-1-1-43)
T1 sequence (P23945 18-695): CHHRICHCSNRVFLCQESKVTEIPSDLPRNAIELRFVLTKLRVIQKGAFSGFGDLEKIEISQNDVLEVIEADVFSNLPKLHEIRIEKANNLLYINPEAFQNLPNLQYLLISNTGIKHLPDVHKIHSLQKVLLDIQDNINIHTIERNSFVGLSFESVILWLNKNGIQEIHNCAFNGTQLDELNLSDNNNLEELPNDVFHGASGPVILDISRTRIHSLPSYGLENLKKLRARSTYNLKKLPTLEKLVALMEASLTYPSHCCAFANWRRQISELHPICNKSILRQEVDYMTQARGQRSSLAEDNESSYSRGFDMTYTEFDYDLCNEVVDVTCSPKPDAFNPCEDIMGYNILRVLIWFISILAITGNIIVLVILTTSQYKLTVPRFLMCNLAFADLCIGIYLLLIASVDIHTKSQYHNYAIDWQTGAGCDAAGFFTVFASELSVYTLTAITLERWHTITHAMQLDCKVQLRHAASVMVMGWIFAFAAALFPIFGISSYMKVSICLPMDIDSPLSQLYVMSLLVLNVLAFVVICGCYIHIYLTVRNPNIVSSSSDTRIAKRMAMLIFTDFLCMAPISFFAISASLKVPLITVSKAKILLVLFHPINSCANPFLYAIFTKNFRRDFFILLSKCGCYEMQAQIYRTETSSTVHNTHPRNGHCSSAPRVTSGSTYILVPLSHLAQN
Description: EC50 of Cyclic AMP Production in CHO FSHR Cells+EC20 FSH
2500 Cho-FSHR-LUC-1-1-43 cells were plated per well in 5 μL of phenol red free DMEM/F12+1% FBS. Cells were plated in 384 well, solid white low volume plates (Greiner 784075) by Multidrop. Cells were assayed by adding […] of 2×EC20 FSH/IBMX in DMEM/F12+0.1% BSA) by Multidrop to 2 μL of test compound stamped in 384 well plates (compounds are diluted 1:50). The final FSH concentration was 0.265 pM, and the final IBMX concentration was 200 μM. The compound plate map was as follows: Column 1: 2 μL of DMSO; Column 2: 2 μL of DMSO; Columns 3-12 and 13-24: 2 μL of test compound, diluted 1:4 in 100% DMSO, or 2 μL of FSH, diluted 1:4 in DMEM/F12+0.1% BSA. The starting concentration for FSH was 50 nM (final concentration was 0.5 nM). Furthermore, Column 23 contained 2 μL of EC100 FSH reference (100×) (diluted in DMEM/F12+0.1% BSA) at a final concentration of 0.5 nM, and Column 24 contained 2 μL of 1 mM AS707664/2 reference compound 2. 5 μL of compound+EC20 FSH mixture were transferred to cell plates (1:2 dilution into 5 μL of cell media) The plates were incubated at 37° C. for 1 h. 10 μL of mixed HTRF (CisBio #62AM4PEC) reagents were added per well and incubated at room temperature for 1 h. The plates were read on Envision using the cAMP HTRF—low volume 384 well protocol. The readout was the calculated fluorescence ratio (665 nm/620 nm).

[1] = Intrinsic clearance (Clint) in human liver microsomes; format: in vitro ADME; settings: 0.5 mg/mL protein, NADPH, up to 30 min, first value of human/rat; for microsomal CLint at 0.8 μM: human, liver microsomes, pH 7.4, human liver microsomes; for Clint (human): human liver microsomes
Description: (§1) Intrinsic Clearance (Clint) Assay Protocol:
(§2) A Tecan Genesis workstation (RSP 150/8) was used for to perform the microsomal incubations. Analysis was carried out using a Waters ACQUITY UPLC system coupled to an ABSciex API3000 mass spectrometer. Data analysis was performed using Assay Explorer (Symyx).
(§3) 0.1 M potassium phosphate buffer pH 7.4 containing 1 mM MgCl2 15 mM NADPH in phosphate buffer 4.4 mg protein/mL liver microsomes in phosphate buffer acetonitrile 20% DMSO in water
(§4) Each experiment consists of 12 test and 2 reference compounds. The reference compounds are incubated as a cocktail. Dilution of test compounds was done in 2 steps from a 10 mM DMSO stock solution. First 4 μL stock solution was added to 196 μL of 20% DMSO in potassium phosphate buffer pH 7.4. In a second step 10 μL of the first dilution were added to […] potassium phosphate buffer and 100 μL internal standard solution to a final concentration of 0.8 μM. 100 μL of the final compound dilution were aliquoted into a 96 deep well plate. 12.5 μL liver microsomes were added to each well (0.5 mg/mL final protein concentration) and the samples preincubated for 5 min at 37° C. and 800 rpm agitation.
(§5) After the preincubation, 250 μL cold acetonitrile were added to the 0 min samples to prevent a reaction. Following this, 12.5 μL NADPH solution were added to all wells to start the incubation, with the exception of the 0 min and 30 min controls without cofactor, where the NADPH was substituted for phosphate buffer.
(§6) The incubations were stopped after 5, 10, 20 and 30 min by adding 250 μL cold acetonitrile to the individual wells.
(§7) The quenched samples were then centrifuged at 4000 g for 1 h at 4° C. 100 μL of the supernatant were transferred into 96 well plates for analysis.
(§8) The metabolic stability of each compound was determined by measurement of the change in LC-MS/MS peak area over time. Assay Explorer software was used to automatically calculate the slope k of the decline. The intrinsic clearance (Clint) of each compound was then calculated according to the formula:
(§9) Clint (μL/min/mg protein)=k1000/protein concentration.

[2] = Intrinsic clearance (Clint) in rat liver microsomes; format: in vitro ADME; settings: 0.5 mg/mL protein, NADPH, up to 30 min, second value of human/rat; for microsomal CLint at 0.8 μM: rat, liver microsomes, pH 7.4, rat liver microsomes; for Clint (rat): rat liver microsomes
Description: as §1, §2, §3, §4, §5, §6, §7, §8, §9

Compound	Emax (FSHR) [%]	EC50 (FSHR) [nM]	microsomal CLint at 0.8 μM [1] [µL/min/mg]	microsomal CLint at 0.8 μM [2] [µL/min/mg]	EC50 of cAMP production (% effect) (FSHR)	Clint (human) [1] [μL/min/mg protein]	Clint (rat) [2] [μL/min/mg protein]
[2H]C([2H])(NC(=O)C[C@H]1S[C@@H](c2ccc(C#Cc3ccccc3)cc2)N(c2cccc(C(N)=O)c2)C1=O)C([2H])([2H])c1ccc(OC)c(OC)c1 [Compound 2, 3-((2S,5R)-4-oxo-5-(2-oxo-2-((1,1,2,2-d4-2-(3,4-dimethoxyphenyl)ethyl)amino)ethyl)-2-(4-(phenylethynyl)phenyl)thiazolidin-3-yl)benzamide]	97	1.9	106	24			
[2H]C([2H])([2H])Oc1ccc(C([2H])([2H])C([2H])([2H])NC(=O)C[C@H]2S[C@@H](c3ccc(C#Cc4ccccc4)cc3)N(c3cccc(C(N)=O)c3)C2=O)cc1OC [Compound 3, 3-((2S,5R)-4-oxo-5-(2-oxo-2-((1,1,2,2-d4-2-(3-methoxy-4-(methoxy-d3)phenyl)ethyl)amino)ethyl)-2-(4-(phenylethynyl)phenyl)thiazolidin-3-yl)benzamide]	97	1.7	111	29			
3-((2S,5R)-5-(2-((3-ethoxy-4-methoxyphenethyl)amino)-2-oxoethyl)-4-oxo-2-(4-((phenyl-d5)ethynyl)phenyl)thiazolidin-3-yl)benzamide [Compound 8]		1.7			(99) %	188	54

These reach a lower EC50 (FSHR). Values come first.

Emax (FSHR) [%]	EC50 (FSHR) [nM]	microsomal CLint at 0.8 μM [1] [µL/min/mg]	microsomal CLint at 0.8 μM [2] [µL/min/mg]	EC50 of cAMP production (% effect) (FSHR)	Clint (human) [1] [μL/min/mg protein]	Clint (rat) [2] [μL/min/mg protein]	Compound
	0.5			(99) %	184	44	3-((2S,5R)-4-oxo-5-(2-oxo-2-((2-(3,4-dimethoxyphenyl-d6l)ethyl)amino)ethyl)-2-(4-(phenylethynyl)phenyl)thiazolidin-3-yl)benzamide [Compound 7]
98	0.3	161	23				[2H]c1c([2H])c([2H])c(C#Cc2ccc([C@@H]3S[C@H](CC(=O)NC([2H])([2H])C([2H])([2H])c4ccc(OC([2H])([2H])[2H])c(OCC)c4)C(=O)N3c3cccc(C(N)=O)c3)cc2)c([2H])c1[2H] (single isomer, unassigned) [Compound 10]
99	0.8	168	45				[2H]C([2H])([2H])Oc1ccc(C([2H])([2H])C([2H])([2H])NC(=O)C[C@H]2S[C@@H](c3ccc(C#Cc4ccccc4)cc3)N(c3cccc(C(N)=O)c3)C2=O)cc1OCC (single isomer, unassigned) [Compound 5]
